Test results reported in patent US20170360029A1, “Chemical Agent For Controlling Soil Nematode Which Comprises Macrolide-Type Compound” (Maruwa Biochemical Co., Ltd., priority 2012, published 2017).
Converted amounts (≈) assume the structure as drawn.

Key:
[1] = tested on: sweet potato root-knot nematodes; assay: Nematode Control Test Example 1: emulsions mixed with infested soil, cherry tomato pot test; type: in vivo; conditions: for Aerial part weight / Root-knot parasitism level: cherry tomato, after six weeks, sprayed liquid 10 ppm, concentration in soil 0.3 ppm; for Aerial part weight: mixed with soil; for nematode control effect (in words): concentration of active ingredient in the soil of 0.3 ppm; for Root-knot parasitism level: scale 0-4, mean
Procedure: Each of abamectin 7.5% emulsion from NO. […] One liter of Pleistocene volcanic ash soil in which sweet potato root-knot nematodes had proliferated (the mean of initial sweet potato root-knot nematode density in the fourth-repeated cultivations: 235 nematodes/20 g of soil) was placed in a polyethylene bag and 30 ml of 10 ppm liquid of each chemical agent was mixed therewith while sprayed. The soil mixed with the chemical agent was filled in a pot with a surface area of 162 cm^2. A group where 1 L of soil was mixed and treated with 200 mg of a commercially available organophosphorus-based nematocide fosthiazate 1.5% granule (Ishihara Nemathorin Ace granule, a product from Ishihara Sangyo Kaisha, Ltd.) as a control chemical agent and a group with no treatment were set up. After the treatment with the chemical agent, three stocks of cherry tomato (variety Regina nursery plant with three true leaves, a product from Takii seed Co., Ltcd.) were planted. The test was repeated twice and cultivation management was conducted in a greenhouse. After six weeks, the weight of aerial parts and root-knot parasitism level were investigated.
(§1) In the test below, evaluation criteria for the root-knot parasitism level are as follows:
(§2) The evaluation was conducted using additional intermediate levels of 0.5 between each parasitism levels below at the investigation.
(§3) Parasitism level 0: No root-knots are noted at all.
(§4) Parasitism level 1: The formation of root-knots is noted in not more than 25% of the root.
(§5) Parasitism level 2: The formation of root-knots is noted in more than 25% and not more than 50% of the root.
(§6) Parasitism level 3: The formation of root-knots is noted in more than 50% and not more than 75% of the root.
(§7) Parasitism level 4: The formation of root-knots is noted in more than 75% of the root.

[2] = tested on: sweet potato root-knot nematodes; assay: Nematode Control Test Example 2: abamectin and moxidectin emulsions, pot test; type: in vivo; conditions: for Aerial part weight: cherry tomato; for Aerial part weight / Root-knot parasitism level: after eight weeks; for Root-knot parasitism level: scale 0-4, mean
Procedure: as §1, §2, §3, §4, §5, §6, §7
Abamectin 7.5% emulsion from NO. 3 in Formulation Example 1 and moxidectin 7.5% emulsion from NO. 38 in Formulation Example 3 were prepared by diluting with tap water (water hardness about 70) at a concentration of active ingredient of 5 ppm, 10 ppm, and 20 ppm. One liter of Pleistocene volcanic ash soil in which sweet potato root-knot nematodes had proliferated (initial sweet potato root-knot nematode density: the mean in fourth-repeated cultivations 260 nematodes/20 g of soil) was placed in a polyethylene bag and 30 ml of each of the above was mixed therewith while sprayed. The soil mixed with the chemical agent was filled in a pot with a surface area of 162 cm^2. A group where 1 L of soil was mixed and treated with 200 mg of a commercially available organophosphorus-based nematocide fosthiazate 1.5% granule as a control chemical agent and a group with no treatment were set up. After the treatment with the chemical agent, four stocks of cherry tomato (variety Regina nursery plant with four true leaves) were planted. The test was repeated twice and cultivation management was conducted in a greenhouse. After eight weeks, the weight of aerial parts and root-knot parasitism level were investigated.

[3] = Non Patent Literature 4; cited from earlier work
[4] = cited from earlier work
[5] = sprayed liquid 5 ppm, concentration in soil 0.15 ppm
[6] = sprayed liquid 10 ppm, concentration in soil 0.3 ppm
[7] = sprayed liquid 20 ppm, concentration in soil 0.6 ppm

Row | Molecule | Aerial part weight [1] [g/stock] | nematode control effect (in words) [1] | Root-knot parasitism level [1] | also measured
1 | emamectin | 3.3 | apparently exhibited fewer effects | 3.92 | –
2 | CO[C@H]1C[C@H](O[C@H]2[C@H](C)O[C@@H](O[C@@H]3/C(C)=C/C[C@@H]4C[C@@H](C[C@]5(C=C[C@H](C)[C@@H](C6CCCCC6)O5)O4)OC(=O)[C@@H]4C=C(C)[C@@H](O)[C@H]5OC/C(=C\C=C\[C@@H]3C)[C@]54O)C[C@@H]2OC)O[C@@H](C)[C@@H]1O [DOR, doramectin] | 3.8 | apparent nematode control effect | 0.58 | –
3 | CC1=C[C@H]2C(=O)O[C@H]3C[C@@H](C/C=C(\C)C[C@@H](C)/C=C/C=C4\CO[C@H]([C@@H]1O)[C@@]42O)O[C@]1(C3)C[C@H](O)[C@H](C)[C@@H](/C(C)=C/C(C)C)O1 [NEM, nemadectin] | 3.0 | – | 4.00 | –
4 | abamectin | 3.7 | apparent nematode control effect | 0.75 | Aerial part weight [2, 5]: 55 g/stock; Aerial part weight [2, 6]: 49 g/stock; Aerial part weight [2, 7]: 45 g/stock; capability of controlling nematodes (in words) ([2]; comparison abamectin vs moxidectin, 0.15-0.6 ppm in soil): slightly better effect than moxidectin; Root-knot parasitism level [2, 5]: 2.38; Root-knot parasitism level [2, 6]: 1.17; Root-knot parasitism level [2, 7]: 1.00; breakdown by soil microorganisms [3]: quickly broken down; soil adsorption [3]: very high
5 | lepimectin | 3.1 | – | 4.00 | –
6 | CNC(=O)O/N=C(\SC)C(=O)N(C)C [oxamyl] | – | – | – | solubility to water [4]: 280 mg/mL (≈ 1280 mM)
7 | milbemectin | 2.5 | – | 4.00 | solubility to water [4]: 0.00088 mg/mL
8 | CO/N=C1\C[C@]2(C[C@@H]3C[C@@H](C/C=C(\C)C[C@@H](C)/C=C/C=C4\CO[C@@H]5[C@H](O)C(C)=C[C@@H](C(=O)O3)[C@]45O)O2)O[C@H](/C(C)=C/C(C)C)[C@H]1C [MOX, moxidectin] | 4.1 | – | 1.33 | Aerial part weight [2, 5]: 44 g/stock; Aerial part weight [2, 6]: 54 g/stock; Aerial part weight [2, 7]: 42 g/stock; Root-knot parasitism level [2, 5]: 2.81; Root-knot parasitism level [2, 6]: 1.75; Root-knot parasitism level [2, 7]: 1.38
9 | CO[C@H]1C[C@H](O[C@@H]2/C(C)=C/C[C@@H]3C[C@@H](C[C@]4(CC[C@H](C)[C@@H](C5CCCCC5)O4)O3)OC(=O)[C@@H]3C=C(C)/C(=N/O)[C@H]4OC/C(=C\C=C\[C@@H]2C)[C@]43O)O[C@@H](C)[C@@H]1O [SEL, selamectin] | 2.6 | apparently exhibited fewer effects | 4.00 | –
10 | ivermectin | 3.7 | apparent nematode control effect | 0.83 | –
